{"source": "ChEMBL document CHEMBL1129162", "about": "“Analogs of the orally active growth hormone secretagogue L-162,752” (Bioorg Med Chem Lett, 1996)", "data": [{"system": "not listed separately", "assay": "pKa was determined", "assay_type": "physicochemical", "settings": "not given", "values": [{"smiles": "NC1(C(=O)N[C@H](Cc2c[nH]c3ccccc23)C(=O)N2CCC3(CCc4ccccc43)CC2)CC1", "pKa": 5.9}, {"smiles": "CC(C)(N)C(=O)N[C@H](Cc1c[nH]c2ccccc12)C(=O)N1CCC2(CCc3ccccc32)CC1", "note": "[L-162752]", "pKa": 7.9}]}, {"species_on_record": "Rattus norvegicus", "assay": "In vitro for growth hormone release by using rat pituitary cell assay.", "assay_type": "functional", "settings": "Pituitary gland cell", "units": {"EC50": "nM"}, "values": [{"smiles": "O=C(N[C@H](Cc1c[nH]c2ccccc12)C(=O)N1CCC2(CCc3ccccc32)CC1)C1CCCCN1", "note": "(stereo partly specified)", "EC50": 1900}, {"smiles": "O=C(N[C@H](Cc1c[nH]c2ccccc12)C(=O)N1CCC2(CCc3ccccc32)CC1)C1CCNCC1", "EC50": 100}, {"smiles": "O=C(N[C@H](Cc1c[nH]c2ccccc12)C(=O)N1CCC2(CCc3ccccc32)CC1)C1CCCNC1", "note": "(stereo partly specified)", "EC50": 90}, {"smiles": "C[C@@H](N)C(=O)N[C@H](Cc1c[nH]c2ccccc12)C(=O)N1CCC2(CCc3ccccc32)CC1", "EC50": 1000}, {"smiles": "C[C@](N)(CO)C(=O)N[C@H](Cc1c[nH]c2ccccc12)C(=O)N1CCC2(CCc3ccccc32)CC1", "EC50": 600}, {"smiles": "CC(C)(N)CC(=O)N[C@@H]1CCc2ccccc2N(Cc2ccc(-c3ccccc3-c3nn[nH]n3)cc2)C1=O", "EC50": 60}, {"smiles": "NCC(=O)N[C@H](Cc1c[nH]c2ccccc12)C(=O)N1CCC2(CCc3ccccc32)CC1", "EC50": 2000}, {"smiles": "C[C@H](O)CNC(C)(C)C(=O)N[C@H](Cc1c[nH]c2ccccc12)C(=O)N1CCC2(CCc3ccccc32)CC1", "EC50": 700}, {"smiles": "C[C@H](O)CNC(C)(C)CC(=O)N[C@H](Cc1c[nH]c2ccccc12)C(=O)N1CCC2(CCc3ccccc32)CC1", "EC50": 2.6}, {"smiles": "CC(C)(CC(=O)N[C@H](Cc1c[nH]c2ccccc12)C(=O)N1CCC2(CCc3ccccc32)CC1)NC[C@H](O)CO", "EC50": 16}, {"smiles": "NC1(C(=O)N[C@H](Cc2c[nH]c3ccccc23)C(=O)N2CCC3(CCc4ccccc43)CC2)CCCC1", "EC50": 2600}, {"smiles": "C[C@H](N)C(=O)N[C@H](Cc1c[nH]c2ccccc12)C(=O)N1CCC2(CCc3ccccc32)CC1", "EC50": 840}, {"smiles": "C[C@@](N)(CO)C(=O)N[C@H](Cc1c[nH]c2ccccc12)C(=O)N1CCC2(CCc3ccccc32)CC1", "EC50": 48}, {"smiles": "NC1(C(=O)N[C@H](Cc2c[nH]c3ccccc23)C(=O)N2CCC3(CCc4ccccc43)CC2)CC1", "EC50": 2100}, {"smiles": "CC(C)(N)C(=O)N[C@@H](Cc1c[nH]c2ccccc12)C(=O)N1CCC2(CCc3ccccc32)CC1", "EC50": 10000}, {"smiles": "CC(C)(N)CC(=O)N[C@H](Cc1c[nH]c2ccccc12)C(=O)N1CCC2(CCc3ccccc32)CC1", "EC50": 76}, {"smiles": "CC(C)(N)C(=O)N[C@H](Cc1c[nH]c2ccccc12)C(=O)N1CCC2(CCc3ccccc32)CC1", "note": "[L-162752]", "EC50": 14}, {"smiles": "O=C(NC(Cc1c[nH]c2ccccc12)C(=O)N1CCC2(CCc3ccccc32)CC1)NC1CN2CCC1CC2", "note": "(stereo unspecified) [SPIROPIPERIDINE]", "EC50": 50}]}, {"species_on_record": "Rattus norvegicus", "assay": "Compound was tested in vitro for growth hormone release by using rat pituitary cell assay.", "assay_type": "functional, Pituitary gland cell", "settings": "not given", "units": {"Stimulation": "%"}, "values": [{"smiles": "NC1(C(=O)N[C@H](Cc2c[nH]c3ccccc23)C(=O)N2CCC3(CCc4ccccc43)CC2)CCCCC1", "Stimulation": 92}]}]}
